According to article PMC4899283 (Structure (London, England : 1993), 2016):

How the values were obtained:
[1] = molecular target: T1, full-length bcMalT (EIIB and EIIC domains) (Bacillus cereus, UniProt Q63GK8); assay: scintillation proximity assay, competition with [3H]maltose; type: binding; conditions: 1 μM [3H]maltose, 4 mM LDAO, pH 7.5, 150 mM NaCl, 4 °C
T1 sequence (Q63GK8 1-545): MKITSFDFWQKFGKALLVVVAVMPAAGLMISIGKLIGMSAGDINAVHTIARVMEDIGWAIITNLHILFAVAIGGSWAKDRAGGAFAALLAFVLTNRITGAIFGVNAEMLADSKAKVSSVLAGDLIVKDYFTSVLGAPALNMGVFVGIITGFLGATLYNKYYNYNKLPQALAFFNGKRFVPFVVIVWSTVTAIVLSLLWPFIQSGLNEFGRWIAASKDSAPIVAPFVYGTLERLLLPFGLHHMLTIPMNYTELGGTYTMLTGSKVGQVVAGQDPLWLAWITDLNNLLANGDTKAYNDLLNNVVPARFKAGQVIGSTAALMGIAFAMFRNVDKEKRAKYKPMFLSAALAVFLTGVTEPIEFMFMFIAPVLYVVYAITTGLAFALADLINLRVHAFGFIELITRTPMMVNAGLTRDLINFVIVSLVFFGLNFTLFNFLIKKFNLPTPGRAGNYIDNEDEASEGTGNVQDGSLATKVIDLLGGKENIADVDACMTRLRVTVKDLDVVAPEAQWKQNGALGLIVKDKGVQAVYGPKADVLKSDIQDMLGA

[2] = molecular target: T1, full-length bcMalT (EIIB and EIIC domains); assay: as above; type: binding; conditions: 1 μM [3H]maltose, 4 mM LDAO, pH 7.5, 150 mM NaCl, 4 °C; homologous competition

Row | SMILES | binding competition at 500 μM [1] | IC50 [2] [µM]
1 | OC[C@H]1O[C@@](CO)(O[C@H]2O[C@H](CO)[C@@H](O)[C@H](O)[C@H]2O)[C@@H](O)[C@@H]1O [sucrose] | No significant binding was observed for a number of other sugars tested, with the exception of sucrose | –
2 | OC[C@H]1O[C@H](O[C@H]2[C@H](O)[C@@H](O)C(O)O[C@@H]2CO)[C@H](O)[C@@H](O)[C@@H]1O (some centres unmarked) [maltose] | – | 4.5 ± 1.1
